Columns and labels:
PaqFOS1 [1] = biological target: T1, PaqFOS1 (Pteridium aquilinum, UniProt A0A7H1KPE2); assay: absorbance spectrometry; SEC monitored at […] nm; format: binding; conditions: cofactor of the isolated protein; 50 mM HEPES pH 7.5, 150 mM NaCl, 0.5 mM TCEP
T1 construct: gene FOS1; full-length, N-terminal 6xHis, codon-optimised, pET-30a(+), E. coli BL21(DE3)-R3; methods print contig as Paq18305

PaqFOS1 [2] = biological target: T1, PaqFOS1; assay: absorbance spectrometry; SEC monitored at […] nm; format: binding; conditions: cofactor of the isolated protein; 50 mM HEPES pH 7.5, 150 mM NaCl, 0.5 mM TCEP; remark: listed apart in the source
[3] = biological target: the molecule itself; assay: SEC; HiLoad 16/60 Superdex 200 calibrated with a high molecular weight kit (43 to 669 kDa); 50 mM HEPES pH 7.5, 150 mM NaCl, 0.5 mM TCEP; after His-Trap purification; self-association (dimer)

Molecule | stoichiometry N [3] | further results
NC(=O)C1=CN([C@@H]2O[C@H](COP(=O)(O)OP(=O)(O)OC[C@H]3O[C@@H](n4cnc5c(N)ncnc54)[C@H](OP(=O)(O)O)[C@@H]3O)[C@@H](O)[C@H]2O)C=CC1 [NADPH] |  | absorbance spectrometry; SEC monitored at 254 nm (PaqFOS1 [1]): The isolated PaqFOS1 protein binds the cofactors FAD and NADPH as demonstrated by absorbance spectrometry
Cc1cc2nc3c(=O)[nH]c(=O)nc-3n(C[C@H](O)[C@H](O)[C@H](O)COP(=O)(O)OP(=O)(O)OC[C@H]3O[C@@H](n4cnc5c(N)ncnc54)[C@H](O)[C@@H]3O)c2cc1C [FAD] |  | absorbance spectrometry; SEC monitored at 450 nm (PaqFOS1 [2]): The isolated PaqFOS1 protein binds the cofactors FAD and NADPH as demonstrated by absorbance spectrometry
Pteridium aquilinum fern oxime synthase 1 (PaqFOS1), recombinant with N-terminal 6xHis tag (enzyme, UniProt A0A7H1KPE2 1-543, looked up, identical to the 543 aa ORF of Pa22758 except for a single amino acid substitution; calculated mass 62.5 kDa; codon optimized for E. coli; No removal of the His tag is described; also called Paq18302; Paq18302 FMO) MAPNVPSAMYTTCLPERTALQEKLSGDRAALAARVCIVGAGVTGLCACKHLLQHGVESVVLEMQTGVGGVWRNTFSSTKLQTPRDAFQYSDFLWPPGTPRLPSHAQVLDYLESYARKFQVLERIVFNCRVLEVRRLDLEGPPPVSAFQKLPANAKWAVRVQQGSADLTQLDAEWLYFEYVLVCVGHYGDIAKTPKFAVPSKGPQAFHGKVLHSLDYSKLDEAATKKLLTGKRVIVVGSRKSALDAVMEASNSNRGPDGKPVTLLFRTPHWVIAHHFFYGIPMSYMTSRFSQLLVPQPGGGSTLHDIISAALSPLRWALSKALEFYLLSTLPLAEHGFVPNQNIFEEFKSCKLTLLPEHFFDYVKEGHIKLQKTSTWCFSSNGVTLPNGDELEADVIILCTGYEGERKIKSLLGTSFEDILQENDSSIPLYRGVLPPRIPNMAILGFQESYSNLFSAEMSARWVAYWIAGKIALPNKEIMEMEAYKWLRNTKPFMTINDKTCVNTTALQLADQMCRDMGWNSRRKKSLLQEIFAPYGNMDYKDE | 2 | 
Arabidopsis thaliana flavin-dependent monooxygenase 1 (AtFMO1), recombinant with upstream 6xHis tag (enzyme, A. thaliana, UniProt Q9LMA1 1-530, looked up, AtFMO1 from Arabidopsis thaliana (Q9LMA1), codon optimized for E. coli; The methods describe the isolation for PaqFOS1 only; AtFMO1 is said to have been expressed and isolated in parallel; source: E. coli BL21(DE3)-R3, pET-30a(+), expressed and isolated in parallel to PaqFOS1) MASNYDKLTSSRVAIIGAGVSGLAAAKNLVHHNPTVFEASDSVGGVWRSCTYETTKLQSARVDYEFSDFPWPNNRDDTTFPPYLEILDYLESYAKHFDLLKFMKFGSKVIEVRFIGDGETPQMVDLGAYGNLLPGKPVWEVAVQIGDSGDIQWHAFEFVVVCTGKYGDVPRIPAFPAKKGPEMFQGKVMHSMDYCKLEKEEASTLLSGKKVAVIGFKKSAIDLALESALANQGEGGKACTMVVRTTHWGIPHYWVWGLPFFLFYSSRASQFLHDRPNQSFLRTLFCLLFSLLRAVVSKFIESYVLWKLPLEKYGLKPNHSFEEDYASCQMAIIPENFFEEADKGMIRFKKSSKWWFYEEGIVFEDGTTLEADVVILATGYDGKKKLKAIVPEPFRTWLEFPSGVMPLYRGTIHPLIPNMGFVGYVQSSSNLHTSELRSMWLSRLVDEKFRLPSKEKMLDQFLKEMEVTRNSSRFYKRHCISTFSIQHADDMCNDMGLNPWRKSNFLLEAFSPYGSQDYRLGQEEKEDMTA | 2 | 
